Measurements as given in patent publication US20260053958A1, “HALOGENATED SOMATOSTATIN ANALOGS WITH MULTIPLE SOMATOSTATIN RECEPTOR SUBTYPE SELECTIVITY” (GRAFTON THERAPEUTICS SÀRL, priority 2022, published 2026).
Numbered stars: 1 amine (or outer) side, 2 acyl side, 3 side chain; on linkers, the order of the positions; unused ones are H or OH. Bridge positions count the residues as written; N and C are the ends. Square brackets hold non-standard residues; d marks the D form. Peptide text beside a SMILES is read from it. ξ: configuration not given here. Tyr(3-Br) = N[C@@H](Cc1ccc(O)c(Br)c1)C(=O)O; Tyr(3-Cl) = N[C@@H](Cc1ccc(O)c(Cl)c1)C(=O)O; X2 = Nc1ccc(C[C@@H](N[*:1])C(=O)[*:2])cc1Br; X3 = Nc1ccc(C[C@@H](N[*:1])C(=O)[*:2])cc1Cl; X1 = Nc1ccc(C[C@@H](N[*:1])C(=O)[*:2])cc1F; Tyr(3-F) = N[C@@H](Cc1ccc(O)c(F)c1)C(=O)O; Thr(3ξ) = CC(O)[C@H](N)C(=O)O

Key:
SST2 [1] = molecular target: T1, SST2 (Homo sapiens, UniProt P30874); assay: Radioligand binding competition assay against [125I]SS-14, SST2; set-up: expressed in transfected cells; host or cells: CHO-K1 (membrane extracts); settings: CHO-K1 membrane extracts
Protocol: (§1) Reference values thus obtained were compared to historical values obtained from the same receptor and used to validate the experimental session. […] For replicate determinations, the maximum variability tolerated in the test was ±20% around the average of replicates.
(§2) For the SST2 assay, membrane extracts from CHO-K1 cells (accession number NP_001041.1) were used. For the SST5 assay, membrane extracts from CHO-K1 cells (accession number NP_001044.1) were used.
(§3) Nonspecific binding was determined by co-incubation with 200-fold excess of the cold competitor […]. The samples were incubated at a final volume of 0.1 mL at a temperature and for a duration optimized for each receptor and then filtered over filter plates. Filters were washed six times with 0.5 mL of ice-cold washing buffer (optimized for each receptor) and 50 μL of Microscint™ 20 (Packard) were added in each well. The plates were incubated 15 minutes on an orbital shaker and then counted with a TopCount™ for 1 min/well.

SST2 [2] = molecular target: T1, SST2; assay: cAMP HTRF assay; format: cell-based; set-up: expressed in transfected cells; host or cells: CHO-K1; settings: CHO-K1 cells expressing SST2, forskolin, 30 min
Protocol: as §1
CHO-K1 cells (accession number NP_001041.1) expressing human recombinant receptor SST2 were grown prior to the test in media without antibiotic and were detached by gentle flushing with PBS-EDTA (5 mM EDTA).
In a 96-well plate, 12 μl of cells were mixed with 6 μl of the test compound at increasing concentrations and 6 μl of forskolin, then incubated for 30 min at room temperature. The final concentrations of test compound were 0.003 nM; 0.01 nM; 0.03 nM; 0.1 nM; 0.3 nM; 1 nM; 3 nM; 10 nM; 30 nM; and 100 nM. After addition of lysis buffer containing cAMP-d2 and anti-cAMP cryptate detection reagents, the plates were incubated for one hour at room temperature, and fluorescence ratios were measured using an HTRF kit according to the manufacturer specification. The results are shown below in Table 1 and in FIGS. 1A-1D.

NT-3 cells [3] = assay: Inhibition of insulin release from NT-3 cells (ELISA); format: cell-based, human; settings: 5 days, in comparison to untreated NT-3 cells
Protocol: For the study, 24-well plates were coated with 1 mg/ml of human placenta-derived type IV collagen in 950 μL of PBS) and fully dried. NT3 cells were seeded at a density of 20,000 cells/well in complete culture medium (0.5 ml), including growth factors and incubated overnight at 37° C., with 5% CO2.
All drugs were administered at 5 nM and 10 nM and biological duplicates were studied. The treatment exposure period was 5 days. Untreated cell controls were also studied. After 5 days, the supernatants were collected and deposited into 1.5 ml test tubes that were then centrifuged at 13,400 rpm for 5 minutes to remove any cell residue. The samples were stored at −80° C. until the time of analysis.
Secreted insulin levels in the supernatant were studied using a Sandwich-ELISA method (Elabscience® Human Insulin ELISA Kit #E-EL-H2665) according to the manufacturer's instructions. A micro-ELISA plate was pre-coated with an antibody specific to human insulin. Samples or Standards were added to the micro-ELISA plate wells and combined with the specific antibody. Then a biotinylated detection antibody specific for human insulin and Avidin-Horseradish Peroxidase (HRP) conjugate were added successively to each micro plate well, incubated and then washed. Substrate solution was added to each well. Only those wells that contain human insulin, biotinylated detection antibody and Avidin-HRP conjugate appear blue in color. The enzyme-substrate reaction was terminated by the addition of stop solution. The optical density (OD) was measured spectrophotometrically at a wavelength of 450 nm±2 nm, and the concentration of human insulin was then derived from the standard curve.

SST5 = molecular target: T2, SST5 (Homo sapiens, UniProt P35346); assay: Radioligand binding competition assay against [125I]SS-14, SST5; settings: CHO-K1 membrane extracts
T2 construct: expressed in transfected cells; host or cells: CHO-K1 (membrane extracts)
Protocol: as §1, §2, §3

AtT-20 cells = assay: Inhibition of ACTH release from AtT-20 cells (ELISA); format: cell-based, mouse; settings: 72 hours, in comparison to untreated AtT-20 cells
Protocol: AtT-20 cells were seeded in 24-well plates (20,000 cells/well) in complete culture medium and incubated overnight at standard incubator conditions (37° C., 5% CO2) to promote adhesion.
(§4) All compounds were studied at concentrations of 5 nM and 10 nM; untreated cell controls were also studied. A biological duplicate was reproduced for each concentration of each drug. The treatment exposure period was 72 h. At the 72 h time-point, cell supernatant was collected and deposited into 1.5 mL test tubes that were then centrifuged at 13,400 rpm for 5 minutes to remove any cell residues. The samples were stored at −80° C. until the time of analysis.
ACTH levels were quantified using a Sandwich-ELISA technique ((Abcam Mouse/Rat ACTH ELISA Kit #ab263880) according to the manufacturer's instructions. Samples and standards were added individually to the wells, followed by the antibody mix. After incubation, the wells were washed to remove unbound material, and development solution was added, which was catalysed, and the reaction was subsequently stopped. The signal was generated proportionally to the amount of bound analyte and the intensity was measured at 450 nm. Results are shown in Table 8 and in FIG. 4A-4E.

GH3 cells = assay: Inhibition of GH release from GH3 cells (ELISA); format: cell-based, rat; settings: 72 hours, in comparison to untreated GH3 cells
Protocol: as §4
GH levels in the supernatant were quantified using a Sandwich ELISA assay (Millipore Rat/Mouse Growth Hormone ELISA kit #EZRMGH-45K) according to the manufacturer's instructions. This method involved the initial capture of supernatant rat GH to the wells of a microtiter plate coated by a pre-titered amount of anti-Growth Hormone polyclonal antibodies. Unbound GH was washed away and then a second biotinylated anti-GH polyclonal antibody was bound to the captured GH molecules. Unbound GH was again washed away and there followed a step of conjugation of horseradish peroxidase to the immobilized biotinylated antibodies. After a final wash step, immobilized antibody-enzyme conjugates were quantified using horseradish peroxidase activities in the presence of the substrate 3,3′,5,5′-tetramethylbenzidine. The enzyme activity was measured spectrophotometrically. Concentrations of rat GH were derived by interpolation from a reference curve generated in the same assay with reference standards of known concentrations of rat GH.

NT-3 cells [4] = assay: Inhibition of proliferation of NT-3 cells (WST-1 assay); format: cell-based, human; settings: 5 nM, 5 days, in comparison to untreated NT-3 cells
Source text: The water-soluble tetrazolium-1 (WST-1) assay is a standard method for assessing cell viability and proliferation in vitro. The WST-1 assay method is based on the cleavage of tetrazolium salts in culture medium to the dye, formazan, by active mitochondrial enzymes. As viable cell numbers change, so too does the action of mitochondrial dehydrogenases and cleavage of tetrazolium salts. The formation of formazan in the cell medium can be assayed spectrophotometrically as a measure of the number of living cells in the sample well. The effect of various compounds on the cell viability or proliferation rates can be measured as compared with controls or Standards.
All compounds were studied at a dose of 5 nM, and appropriate untreated controls were included.
NT-3 cells were seeded in complete RPMI-1640 medium (100 μl) into a 96-well microplate (20.000 cells/well). This was incubated at 37° C. in 5% CO2 to allow cells to adhere. Cells were treated with the test compounds at a concentration of 5 nM for a period of 5 days without changing the medium and without adding fresh compounds. […] The absorbance of the formazan dye was measured at 450 nm and 690 nm using a microplate reader. […] Average absorbance values were calculated for each group at 450 and 690 nm wavelengths and corrected for blank values. […]

T2 sequence (P35346 whole entry): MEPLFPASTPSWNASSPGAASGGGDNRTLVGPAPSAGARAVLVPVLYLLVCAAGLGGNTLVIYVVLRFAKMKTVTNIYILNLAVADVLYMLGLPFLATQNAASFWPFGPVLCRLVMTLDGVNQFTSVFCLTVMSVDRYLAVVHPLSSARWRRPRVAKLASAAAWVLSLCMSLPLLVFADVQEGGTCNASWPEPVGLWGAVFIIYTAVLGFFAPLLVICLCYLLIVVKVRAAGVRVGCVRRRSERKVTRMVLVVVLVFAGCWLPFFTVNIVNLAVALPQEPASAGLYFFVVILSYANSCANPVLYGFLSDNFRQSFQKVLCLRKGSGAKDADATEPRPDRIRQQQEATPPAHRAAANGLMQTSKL
T1 sequence (P30874 whole entry): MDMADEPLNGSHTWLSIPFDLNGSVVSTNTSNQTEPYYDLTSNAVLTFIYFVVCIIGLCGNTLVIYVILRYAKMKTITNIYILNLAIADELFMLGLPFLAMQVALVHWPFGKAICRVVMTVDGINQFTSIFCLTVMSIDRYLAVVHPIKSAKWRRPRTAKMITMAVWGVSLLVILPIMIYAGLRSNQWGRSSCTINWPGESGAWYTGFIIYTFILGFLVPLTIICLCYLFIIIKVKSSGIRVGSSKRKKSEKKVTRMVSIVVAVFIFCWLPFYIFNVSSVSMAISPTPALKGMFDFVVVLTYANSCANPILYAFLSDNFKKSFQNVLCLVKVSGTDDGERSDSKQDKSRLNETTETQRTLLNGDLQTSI

Structure (SMILES) | IC50 (SST2 [1]; Table 2, first assay (Day 1)) [nM] | EC50 (SST2 [2]) [nM] | Fold Change in Measured Insulin (NT-3 cells [3]; 5 nM) | Fold Change in Measured Insulin (NT-3 cells [3]; 10 nM) | IC50 (SST5; Table 6, second assay (Day 2)) [nM] | IC50 (SST2 [1]; Table 3, second assay (Day 2)) [nM] | Fold Change in Measured ACTH (AtT-20 cells; 5 nM) | Fold Change in Measured ACTH (AtT-20 cells; 10 nM) | Fold Change in Measured GH (GH3 cells; 5 nM) | Fold Change in Measured GH (GH3 cells; 10 nM) | Fold Change in Proliferation (NT-3 cells [4]) | IC50 (SST5; Table 7, third assay (Day 3)) [nM] | IC50 (SST2 [1]; Table 4, third assay (Day 3)) [nM]
CC(C)[C@@H]1NC(=O)[C@H](CCCCN)NC(=O)[C@@H](Cc2c[nH]c3ccccc23)NC(=O)[C@H](Cc2ccc(O)c(Cl)c2)NC(=O)[C@H](NC(=O)[C@H](N)Cc2ccc(N)c(I)c2)CSSC[C@H](C(=O)N[C@H](C(N)=O)C(C)O)NC1=O (single isomer, unassigned) [Compound 1, (4-amino-3-I)-D-Phe-c[Cys-(3-Cl)-Tyr-D-Trp-Lys-Val-Cys]-Thr-NH2] | 0.37 | – | – | – | – | – | – | – | – | – | – | – | –
CC(C)[C@@H]1NC(=O)[C@H](CCCCN)NC(=O)[C@@H](Cc2c[nH]c3ccccc23)NC(=O)[C@H](Cc2ccc(O)c(Cl)c2)NC(=O)[C@H](NC(=O)[C@H](N)Cc2ccc(N)c(I)c2)CSSC[C@H](C(=O)N[C@H](C(N)=O)C(C)O)NC1=O (single isomer, unassigned) [Compound 2, (4-amino-3-Cl)-D-Phe-c[Cys-(3-I)-Tyr-D-Trp-Lys-Val-Cys]-Thr-NH2] | 0.74 | – | – | – | – | – | – | – | – | – | – | – | –
CC(C)[C@@H]1NC(=O)[C@H](CCCCN)NC(=O)[C@@H](Cc2c[nH]c3ccccc23)NC(=O)[C@H](Cc2ccc(O)c(Cl)c2)NC(=O)[C@H](NC(=O)[C@H](N)Cc2ccc(N)c(Cl)c2)CSSC[C@H](C(=O)N[C@H](C(N)=O)C(C)O)NC1=O (stereo partly drawn) [Compound 3, (4-amino-3-Cl)-D-Phe-c[Cys-(3-Cl)-Tyr-D-Trp-Lys-Val-Cys]-Thr-NH2] (H-[X3][dC][Tyr(3-Cl)][dW]KV[dC][Thr(3ξ)]-NH2; disulfide 2-7) | – | 0.25 | 0.62 | 0.56 | 0.86 | 0.48 | 0.68 | 0.76 | 1.04 | 1.02 | – | – | –
CC(C)[C@@H]1NC(=O)[C@H](CCCCN)NC(=O)[C@@H](Cc2c[nH]c3ccccc23)NC(=O)[C@H](Cc2ccc(O)c(F)c2)NC(=O)[C@H](NC(=O)[C@H](N)Cc2ccc(N)c(F)c2)CSSC[C@H](C(=O)N[C@H](C(N)=O)C(C)O)NC1=O (stereo partly drawn) [Compound 4, (4-amino-3-F)-D-Phe-c[Cys-(3-F)-Tyr-D-Trp-Lys-Val-Cys]-Thr-NH2] (H-[X1][dC][Tyr(3-F)][dW]KV[dC][Thr(3ξ)]-NH2; disulfide 2-7) | – | 1.91 | 0.09 | 0.10 | – | – | 0.37 | 0.37 | 0.94 | 0.76 | 0.93 | 3.41 | 2.6
CC(C)[C@@H]1NC(=O)[C@H](CCCCN)NC(=O)[C@@H](Cc2c[nH]c3ccccc23)NC(=O)[C@H](Cc2ccc(O)c(Br)c2)NC(=O)[C@@H](NC(=O)[C@H](N)Cc2ccc(N)c(Br)c2)CSSC[C@@H](C(=O)N[C@H](C(N)=O)[C@@H](C)O)NC1=O [Compound 5, (4-amino-3-Br)-D-Phe-c[Cys-(3-Br)-Tyr-D-Trp-Lys-Val-Cys]-Thr-NH2] (H-[X2]C[Tyr(3-Br)][dW]KVCT-NH2; disulfide 2-7) | – | 0.16 | 0.12 | 0.18 | – | – | 0.68 | 0.77 | 0.72 | 0.75 | 0.52 | 0.79 | 0.54
